Source: patent EP1013272A1, “Manipulation of the activity of a nitric oxide radical production pathway for the treatment of diseases associated with the presence of oxygen free radicals” (Biomedical Primate Research Centre (BPRC), priority 1998, dated 2000)

Assays:
[1] = test system: Con A-activated splenocytes; test: ELISPOT enumeration of IFN-γ and IL-4 producing cells in Con A-stimulated spleen cell cultures with culture supplements; format: cell-based, rat
Description: The aseptically removed spleen was gently crushed with the blunt end of a 5-ml syringe plunger and passaged through a fine mesh nylon screen. Erythrocytes were hemolysed by adding cold sterile water for 20 sec. to cell pellets followed by the addition of half the volume of 2.7% saline. The number of cells was determined by use of Türk's solution and cell viability by means of trypan blue exclusion. Cell suspensions in which the viability was less than 85% were excluded from the studies. Splenocytes were washed twice with CM5, adjusted to 4 x 10^6 cells/ml, transferred to a 24-well culture plate (1.0 ml/well) and stimulated with Con A (5 µg/ml) in the presence or absence of various supplements (as indicated in the text) for 40 h at 37°C in a humidified atmosphere containing 5% CO2. Thereafter, non-adherent cells were collected and subjected to ELISPOT analyses as described below.
The ELISPOT assay for detecting single cytokine secreting cells has been detailed previously (17). Briefly, the wells of PVC microplates were coated with monoclonal antibodies specific for rat IFN-γ or rat IL-4. After washing and postcoating, 100 µl suspensions of Con A-activated splenocytes were pipetted into the wells. The cells were allowed the produce cytokines for either 4 h (IFN-γ pc) or 16 h (IL-4 pc). Thereafter, cells were lysed for 10 minutes with ice-cold distilled water. Subsequently, the wells were thoroughly washed with PBS containing 0.05% Tween-20. Spots were detected by the sequential incubation of biotinylated rabbit anti-cytokine antibodies and goat anti-biotin antibodies conjugated to alkaline phosphatase (AP). The AP substrate 5-bromo-4-chloro-3-indolyl phosphate was used to produce blue zones ('spots') that visualised the positions of the individual spot-forming cells (SFC). SFC were enumerated by image analysis using a stereo microscope coupled to a colour video camera and Micro Image software from Olympus Optical Co. The frequency of spontaneously occurring SFC was always less than 1% of the mitogen-induced frequency.

[2] = GSH-mediated decomposition of GSNO in phosphate buffer (absorbance 335 nm, nitrite, nitrate, ammonia); format: physicochemical
Description: For each experiment GSNO was prepared freshly. […] Three independent experiments were performed with similar results. […] Nitrite levels were measured by the colorimetric Griess reaction. Two independent experiments were performed which produced similar results.
Nitrate was not detected in the solutions.

[3] = test system: peritoneal macrophages; test: H2O2 production by purified peritoneal macrophages (homovanillic acid/HRP); format: cell-based, rat; details: stimulus PMA 5 ng/ml
Description: The spontaneous or PMA/IFN-γ-triggered release of H2O2 was determined by the same method as described for splenocytes. Macrophage monolayers were incubated for 24 h in CM10 with or without rat IFN-γ (1000 U/ml). Subsequently, cells were washed twice with prewarmed PBS and incubated for 1 h in 1.0 ml PBS containing […] CaCl2, […] MgCl2, […] D-glucose, 1.0 unit HRP, […] homovanillic acid and 5 ng/ml PMA. After termination of the reaction, the amount of oxidised homovanillic acid in the supernatant was determined spectrofluorometrically. The cellular proteins in the wells were solubilized by adding 250 µl 0.5% (w/v) sodium dodecylsulphate in 0.2 N NaOH. The amount of solubilized protein was determined by a modification of the Lowry method (19). The results are expressed as nmoles H2O2 per mg of protein.
(§1) Peritoneal cells were collected from rats by lavage with 10 ml ice-cold saline containing 50 units/ml heparin. Cells were washed twice with CM10 and resuspended in CM10 to a concentration of 2 x 10^6 cells/ml. Total cell counts were obtained with a Bürker hemocytometer and differential counts performed on centrifuge preparations fixed in absolute methanol and stained with Giemsa stain. The peritoneal cell suspension of Lewis rats consisted of 70 ± 3% macrophages, 13 ± 1% lymphocytes, 14 ± 1% granulocytes and 3 ± 1% mast cells (n = 3). […]

[4] = test system: peritoneal macrophages; test: Superoxide anion production by purified peritoneal macrophages (SOD-inhibitable ferricytochrome C reduction); format: cell-based, rat; details: stimulus PMA 5 ng/ml
Description: as §1, with “3). The peritoneal cells of BN rats were composed of 61 ± 2% macrophages, 12 ± 1% lymphocytes, 26 ± 2% granulocytes and 2 ± 1% mast cells (n = 3). Cells were fractionated by culturing them in the wells of a 24-well tissue culture plate at a concentration of 2 x 10^6 cells/ml in CM10.” for “3).”
The pMØ monolayers were incubated for 20 h at 37°C in CM10 and subsequently washed (twice) with Hanks' balanced salt solution (HBSS) without phenol red. […] Each test was run in duplicate and the absorption increase at 550 nm was measured using a Beckmann DU-5 spectrophotometer. ^·O2^- release by splenocytes was determined after Con A activation of 4 x 10^6 cells for 20 h. […]

[5] = BN normal rats, GSH 2 mM, Con A
[6] = Lewis normal rats, GSH 2 mM, Con A
[7] = excess reducing agent added to cultures, splenocytes from BN or Lewis rats
[8] = normal Lewis rats, GSH 2 mM, no XO/HY, Con A 5 µg/ml (Table 5)
[9] = BN naive rats, NMMA 180 µM added after 20 h Con A + 2 mM GSH, further 20 h
[10] = BN naive rats, NMMA 360 µM added after 20 h Con A + 2 mM GSH, further 20 h
[11] = BN, HgCl2-exposed rats, NMMA 180 µM added after 20 h Con A + 2 mM GSH, further 20 h
[12] = BN, HgCl2-exposed rats, NMMA 360 µM added after 20 h Con A + 2 mM GSH, further 20 h
[13] = Lewis naive rats, NMMA 180 µM added after 20 h Con A + 2 mM GSH, further 20 h
[14] = Lewis naive rats, NMMA 360 µM added after 20 h Con A + 2 mM GSH, further 20 h
[15] = Lewis, HgCl2-exposed rats, NMMA 180 µM added after 20 h Con A + 2 mM GSH, further 20 h
[16] = Lewis, HgCl2-exposed rats, NMMA 360 µM added after 20 h Con A + 2 mM GSH, further 20 h

In the case of `N[C@@H](CCC(=O)N[C@@H](CS)C(=O)NCC(=O)O)C(=O)O` [GSH, Glutathione], the “IFN-γ pc per 1x10^4 MNC” value [1, 5] is reported as 98 ± 11 per 1 x 10^4 MNC, the “IL-4 pc per 2x10^5 MNC” value [1, 5] is reported as 60 ± 5 per 2 x 10^5 MNC and the “ratio IFN-γ pc/IL-4 pc” value [1, 5] is reported as 34. For the same compound, the “IFN-γ pc per 1x10^4 MNC” value [1, 6] was 139 ± 14 per 1 x 10^4 MNC, the “IL-4 pc per 2x10^5 MNC” value [1, 6] was 11 ± 3 per 2 x 10^5 MNC and the “ratio IFN-γ pc/IL-4 pc” value [1, 6] was 253. For the same compound, the “enhancement of the ratio of IFN-γ pc/IL-4 pc” value [1, 7] was “approximately 10 fold”, the “IFN-γ pc per 1x10^4 MNC” value [1, 8] was 103 ± 23 per 1 x 10^4 MNC and the “IL-4 pc per 2x10^5 MNC” value [1, 8] was 6 ± 1 per 2 x 10^5 MNC. For the same compound, the “ratio IFN-γ pc/IL-4 pc” value [1, 8] was 343.

In the case of `N[C@@H](CCC(=O)N[C@@H](CSN=O)C(=O)NCC(=O)O)C(=O)O` [GSNO, S-nitrosoglutathione], the “Nitrate in the solutions” value ([2]; GSH-triggered decomposition of GSNO) is reported as “not detected”, the “decomposition of GSNO” value ([2]; absence of GSH, 0.1 mM, 42 h, room temperature (not shown)) is reported as “no significant decomposition” and the major decomposition product ([2]; molar ratios exceeding 20 (Fig. 5)) is reported as “NH3”. For the same compound, the “time in which decomposition was almost completed” value ([2]; ratio of GSH:GSNO of 320 (fig. 3)) was about 5 h.

For `OO` [H2O2, hydrogen peroxide], the “frequencies of IFN-γ pc and IL-4 pc” value ([1]; H2O2 up to 100 µM added to cultures (not shown)) was “did not affect”.

With `CNC(=N)NCCC[C@H](N)C(=O)O` [NMMA, N^G-monomethyl-L-arginine] the “IFN-γ pc per 1x10^4 MNC” value [1, 9] was 209 ± 19 per 1x10^4 MNC, the “IL-4 pc per 2x10^5 MNC” value [1, 9] was 32 ± 6 per 2x10^5 MNC and the “ratio pc IFN-γ/IL-4” value [1, 9] was 131. For the same compound, the “IFN-γ pc per 1x10^4 MNC” value [1, 10] was 251 ± 14 per 1x10^4 MNC, the “IL-4 pc per 2x10^5 MNC” value [1, 10] was 30 ± 2 per 2x10^5 MNC and the “ratio pc IFN-γ/IL-4” value [1, 10] was 167. The “IFN-γ pc per 1x10^4 MNC” value [1, 11] was 71 ± 11 per 1x10^4 MNC, the “IL-4 pc per 2x10^5 MNC” value [1, 11] was 54 ± 11 per 2x10^5 MNC and the “ratio pc IFN-γ/IL-4” value [1, 11] was 26. The “IFN-γ pc per 1x10^4 MNC” value [1, 12] was 92 ± 17 per 1x10^4 MNC, the “IL-4 pc per 2x10^5 MNC” value [1, 12] was 20 ± 5 per 2x10^5 MNC and the “ratio pc IFN-γ/IL-4” value [1, 12] was 92. For the same compound, the “enhancement of the ratio of IFN-γ pc/IL-4 pc” value ([1]; HgCl2-exposed rats, BN splenocyte cultures) was 11 fold, the “enhancement of the ratio of IFN-γ pc/IL-4 pc” value ([1]; HgCl2-exposed rats, Lewis splenocyte cultures) was 2 fold and the “IFN-γ pc per 1x10^4 MNC” value [1, 13] was 175 ± 9 per 1x10^4 MNC. The “IL-4 pc per 2x10^5 MNC” value [1, 13] was 14 ± 7 per 2x10^5 MNC, the “ratio pc IFN-γ/IL-4” value [1, 13] was 250 and the “IFN-γ pc per 1x10^4 MNC” value [1, 14] was 178 ± 11 per 1x10^4 MNC. The “IL-4 pc per 2x10^5 MNC” value [1, 14] was 13 ± 2 per 2x10^5 MNC, the “ratio pc IFN-γ/IL-4” value [1, 14] was 274 and the “IFN-γ pc per 1x10^4 MNC” value [1, 15] was 112 ± 5 per 1x10^4 MNC. For the same compound, the “IL-4 pc per 2x10^5 MNC” value [1, 15] was 10 ± 5 per 2x10^5 MNC, the “ratio pc IFN-γ/IL-4” value [1, 15] was 224 and the “IFN-γ pc per 1x10^4 MNC” value [1, 16] was 135 ± 10 per 1x10^4 MNC. The “IL-4 pc per 2x10^5 MNC” value [1, 16] was 8 ± 2 per 2x10^5 MNC, the “ratio pc IFN-γ/IL-4” value [1, 16] was 338 and the “increase in the ratio of IFN-γ pc/IL-4 pc” value ([1]; splenocyte cultures of naive BN rats) was 4 fold.

For `CCCCCCCCCCCCCC(=O)O[C@@H]1[C@@H](C)[C@@]2(O)[C@@H](C=C(CO)C[C@]3(O)C(=O)C(C)=C[C@@H]23)[C@@H]2C(C)(C)[C@]12OC(C)=O` [PMA, phorbol 12-myristate 13-acetate], the “ROI H2O2 (nmol/mg protein)” value ([3]; BN normal rats) was 8.7 nmol/mg protein, the “ROI H2O2 (nmol/mg protein)” value ([3]; Lewis normal rats) was 1.9 nmol/mg protein and the “ROI ^·O2^- (nmol/mg protein)” value ([4]; BN normal rats) was 388.2 nmol/mg protein. The “ROI ^·O2^- (nmol/mg protein)” value ([4]; Lewis normal rats) was 62.1 nmol/mg protein.

With `N[C@@H](CS)C(=O)O` [cysteine] the “enhancement of the ratio of IFN-γ pc/IL-4 pc” value [1, 7] was “approximately 10 fold”.
